Laboratory results taken from PubChem BioAssay AID1552 (Sanford-Burnham Center for Chemical Genomics, 2009).
The source made the active and inactive calls. How the calls were made is not given here.

Molecular target: Ubiquitin-conjugating enzyme E2 N (Homo sapiens) (UniProt P61088)
Test: UBE2N binders by NMR, biophysical, purified protein (AID 1552)
Settings: NMR binding to purified UBE2N

Chain of Ubiquitin-conjugating enzyme E2 N (Homo sapiens) (P61088 whole entry, looked up): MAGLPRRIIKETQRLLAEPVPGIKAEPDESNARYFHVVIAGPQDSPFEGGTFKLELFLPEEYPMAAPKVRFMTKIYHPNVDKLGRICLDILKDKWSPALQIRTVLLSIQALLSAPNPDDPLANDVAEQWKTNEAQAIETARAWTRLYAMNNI

Row | Compound | Kd
1 | O=C(O)c1ccc(-n2cccc2)cc1 | > 4 mM (inactive)
2 | O=C(NCCO)NC(=S)c1ccccc1 | > 4 mM (inactive)
3 | NC(=O)C1CCN(C(=O)c2ccccc2F)CC1 | > 4 mM (inactive)
4 | c1ccc(-c2nsc(N3CCCNCC3)n2)cc1 | > 4 mM (inactive)
5 | CN(C)S(=O)(=O)c1ccc(NC=O)cc1 | > 4 mM (inactive)
6 | C=C1C(=O)OC2CC1C(OC(C)=O)C/C(C)=C/CC/C(C)=C/CC[C@]2(C)O (some centres not stated) | > 4 mM (inactive)
7 | O=C(O)c1cccc(CSc2ncccn2)c1 | > 4 mM (inactive)
8 | O=[N+]([O-])c1ccc(/C=N/c2ncn[nH]2)cc1 | > 4 mM (inactive)
9 | O=C(O[C@@H]1Cc2c(O)cc(O)cc2O[C@@H]1c1cc(O)c(O)c(O)c1-c1c([C@H]2Oc3cc(O)cc(O)c3C[C@H]2O)cc(O)c(O)c1O)c1cc(O)c(O)c(O)c1 | > 4 mM (inactive)
10 | NC(=O)c1ccc(NC(=O)c2cccnc2)cc1 | > 4 mM (inactive)
11 | COc1ccc(/C=C2/SC(N)=NC2=O)c(OC)c1 | > 4 mM (inactive)
12 | N/N=C1\CCCc2c1no[n+]2[O-] | > 4 mM (inactive)
13 | Oc1ccc(-n2cncn2)cc1 | > 4 mM (inactive)
14 | NC(=O)NCCCC(N)C(=O)O (configuration not stated) | > 4 mM (inactive)
15 | O=C(Nc1nnc(C(F)(F)F)s1)c1cccnc1 | > 4 mM (inactive)
16 | Nc1nnc(COc2cccc(C(F)(F)F)c2)s1 | > 4 mM (inactive)
17 | COc1ccccc1C(=O)NC1CCN(C)CC1 | > 4 mM (inactive)
18 | c1coc(-c2nc(-c3ccncc3)no2)c1 | > 4 mM (inactive)
19 | O=C1CCC(=O)N1CNc1ccccc1 | > 4 mM (inactive)
20 | O=C(NCc1ccccc1F)c1cccs1 | > 4 mM (inactive)
21 | CCn1nnc(NC(=O)c2cc3ccccc3o2)n1 | > 4 mM (inactive)
22 | O=C(Nc1cnccn1)c1ccncc1 | > 4 mM (inactive)
23 | Cn1nnc2c(Cl)ncnc21 | > 4 mM (inactive)
24 | O=S(=O)(O)c1cc[n+]([O-])cc1 | > 4 mM (inactive)

Row | Compound | Kd
25 | Nc1ncnc2c1ncn2CCN1CCOCC1 | > 4 mM (inactive)
26 | CC(C)(C)CC(=O)NC1=NCCS1 | > 4 mM (inactive)
27 | O=C1C2CCCCC2C(=O)N1c1nccs1 (configuration not stated) | > 4 mM (inactive)
28 | O=C1NNC(=O)C2C3c4ccccc4C(c4ccccc43)C12 (configuration not stated) | > 4 mM (inactive)
29 | N#Cc1cccc(Cn2nnc(-c3ccccc3)n2)c1 | > 4 mM (inactive)
30 | CSc1nc(C)c(Oc2ccccc2)c(=O)n1C | > 4 mM (inactive)
31 | O=C(c1cnsn1)N1CCN(c2ccccc2)CC1 | > 4 mM (inactive)
32 | CC(=O)NC1(NC(C)=O)CCN(C)CC1 | > 4 mM (inactive)
33 | Cc1ccccc1NC(=S)NCCO | > 4 mM (inactive)
34 | COc1cccc(NC(=O)c2nc3ncccn3n2)c1 | > 4 mM (inactive)
35 | O=C1NC(=S)NC(=O)C1=Cc1ccccc1O | > 4 mM (inactive)
36 | CC1=NN2C(=N)CC(=O)N=C2S1 | > 4 mM (inactive)
37 | NC(=O)c1ccc(NC(=O)C2CC2)cc1 | > 4 mM (inactive)
38 | C[C@H](CCC(=O)O)[C@H]1CCC2C3C(CC[C@@]21C)[C@@]1(C)CC[C@@H](O)C[C@H]1C[C@H]3O (some centres not stated) | > 4 mM (inactive)
39 | Cc1cc(CN2C(=O)c3ccccc3C2=O)on1 | > 4 mM (inactive)
40 | CC(=O)NCC1(c2ccccc2)CCOCC1 | > 4 mM (inactive)
41 | O=C(c1ccccc1)N1CCOCC1 | > 4 mM (inactive)
42 | CC(NC(=O)c1ccco1)C1CCCO1 (configuration not stated) | > 4 mM (inactive)
43 | COc1ccccc1NC(=O)C1CCCCC1 | > 4 mM (inactive)
44 | O=C(O)CNc1ncnc2nc[nH]c12 | > 4 mM (inactive)
45 | O=C(CN1CCOCC1)Nc1nccs1 | > 4 mM (inactive)
46 | Cc1nn(CC(=O)N2CCCCC2)c(=O)c2ccccc12 | > 4 mM (inactive)
47 | Cc1nnsc1C(=O)Nc1ccccn1 | > 4 mM (inactive)
48 | O=C1COc2cc(O)ccc21 | > 4 mM (inactive)

Row | Compound | Kd
49 | CC1(C(=O)O)CC2C=CC1C2 (configuration not stated) | > 4 mM (inactive)
50 | Cn1nc(C(C)(C)C)cc1N | > 4 mM (inactive)
51 | N#Cc1cnc(N2CCCCC2)nc1N | > 4 mM (inactive)
52 | Nc1cc(C(F)(F)F)ccc1N1CCOCC1 | > 4 mM (inactive)
53 | CS(=O)(=O)NN=C1CCCCC1 | > 4 mM (inactive)
54 | CC(=O)Nc1ccc(S(=O)(=O)Nc2cc(C)on2)cc1 | > 4 mM (inactive)
55 | NC(=O)c1ccc(-c2ccccn2)s1 | > 4 mM (inactive)
56 | CC(=O)Nc1ccc(C(=O)NC2=NCCS2)cc1 | > 4 mM (inactive)
57 | O=C(Nc1ccon1)c1cccc(C(F)(F)F)c1 | > 4 mM (inactive)
58 | CCn1ncc(Cl)c1C(=O)Nc1ccncc1 | > 4 mM (inactive)
59 | CCNC(=S)NS(=O)(=O)c1ccccc1 | > 4 mM (inactive)
60 | N#CCc1nc2ccccc2s1 | > 4 mM (inactive)
61 | O=C(O[C@@H]1Cc2c(O)cc(O)cc2O[C@@H]1c1cc(=O)c(O)c2c(O)c(O)cc([C@H]3Oc4cc(O)cc(O)c4C[C@H]3O)c2c1)c1cc(O)c(O)c(O)c1 | > 4 mM (inactive)
62 | Cc1nn(-c2ccccc2C(=O)O)c(=O)c2ccccc12 | > 4 mM (inactive)
63 | COc1ccc(S(=O)(=O)Nc2ccccn2)c(C)c1C | > 4 mM (inactive)
64 | CCc1nnc(NC(C)=O)s1 | > 4 mM (inactive)
65 | O=C(NCc1n[nH]c(=O)c2ccccc12)C1CC1 | > 4 mM (inactive)
66 | c1ccc(-n2nnnc2Oc2cccc3cccnc23)cc1 | > 4 mM (inactive)
67 | O=c1nc(N2CCCCC2)nc2n1CCO2 | > 4 mM (inactive)
68 | CN1CCC(=NNC(=O)c2ccco2)CC1 | > 4 mM (inactive)
69 | CC(=O)c1cccc(NC2=NCC(C)(C)S2)c1 | > 4 mM (inactive)
70 | NCC1COc2ccccc2O1 (configuration not stated) | > 4 mM (inactive)
71 | COc1ccc(-c2cc(=O)c3c(OC)c(OC)c(OC)c(OC)c3o2)cc1OC | > 4 mM (inactive)
72 | CN1CCC(N2CCCC(C(N)=O)C2)CC1 (configuration not stated) | > 4 mM (inactive)

Row | Compound | Kd
73 | Cc1cc(SCC(=O)c2ccccc2)nc(=O)[nH]1 | > 4 mM (inactive)
74 | COc1cccc(N2CCNCC2)c1 | > 4 mM (inactive)
75 | CC(=O)Nc1cccc(NC(=O)c2ccco2)c1 | > 4 mM (inactive)
76 | COc1cccc(S(=O)(=O)Nc2cccnc2)c1 | > 4 mM (inactive)
77 | C/C=C(/C)C(=O)O[C@@H]1Cc2c(ccc3ccc(=O)oc23)OC1(C)C | > 4 mM (inactive)
78 | Cc1ccc(N)nc1 | > 4 mM (inactive)
79 | Nc1cc(N)nc(SCc2cccnc2)n1 | > 4 mM (inactive)
80 | O=C1CCNc2ccccc2N1 | > 4 mM (inactive)
81 | CN1CCC2(CC1)CC1CC3C=CC1(CN2)O3 (configuration not stated) | > 4 mM (inactive)
82 | COc1ccc2cc3[n+](cc2c1OC)CCc1cc2c(cc1-3)OCO2 | > 4 mM (inactive)
83 | COc1cc(O)ccc1C(C)=O | > 4 mM (inactive)
84 | NC1=NN(c2ccccc2)C(=O)C1 | > 4 mM (inactive)
85 | O=C(CN1C(=O)CCC1=O)c1ccccc1 | > 4 mM (inactive)
86 | Cc1cccc(N2C(=O)CC(=O)NC2=O)c1 | > 4 mM (inactive)
87 | CC(=O)O[C@H]1CCC2(C)C3=C(CCC2C1(C)C)[C@]1(C)CCC(C(C)CCC=C(C)C)[C@@]1(C)CC3 (some centres not stated) | > 4 mM (inactive)
88 | COc1cc(C(C)=O)cc(OC)c1O | > 4 mM (inactive)
89 | CN(Cc1nc2ccccc2n1C)S(C)(=O)=O | > 4 mM (inactive)
90 | NC(=O)CSc1ccc2nnc(-c3ccccc3)n2n1 | > 4 mM (inactive)
91 | CS(=O)(=O)Nc1ccccc1C(=O)c1ccccc1 | > 4 mM (inactive)
92 | O=C(NCCCSc1ncccn1)Nc1ncccn1 | > 4 mM (inactive)
93 | Oc1ccc2c(c1)OCC1(O)Cc3cc(O)c(O)cc3C21 (configuration not stated) | > 4 mM (inactive)
94 | O=c1c(O)c(-c2ccc(O)c(O)c2)oc2cc(O)ccc12 | > 4 mM (inactive)
95 | Cc1cc(N(CN2CCCC2=O)C(=O)c2ccccc2)no1 | > 4 mM (inactive)
96 | CC1=C(C(N)=O)C(c2ccco2)C(C(N)=O)=C(C)N1 | > 4 mM (inactive)

Row | Compound | Kd
97 | Cc1nnc(SCc2cccs2)[nH]c1=O | > 4 mM (inactive)
98 | COc1ccc(C)cc1-n1c(-c2ccncc2)n[nH]c1=S | > 4 mM (inactive)
99 | C/C=C1\[C@H]2C=C(C)C[C@]1(N)c1ccc(=O)[nH]c1C2 | > 4 mM (inactive)
100 | C/C=C(\C)c1nnc(NC(=O)c2ccco2)s1 | > 4 mM (inactive)
101 | COC(=O)C[C@H]1C(C)(C)C(=O)[C@@H]2CC3=C(CC[C@]4(C)C3=CC(=O)O[C@H]4c3ccoc3)C1(C)C2=O | > 4 mM (inactive)
102 | C[C@H]1OC(O[C@H]2[C@@H](O)CC(O[C@H]3[C@@H](O)C[C@H](O[C@H]4CC[C@]5(C)C6CC[C@]7(C)[C@@H](C8=CC(=O)OC8)[C@@H](O)C[C@]7(O)[C@@H]6CC[C@@H]5C4)O[C@@H]3C)O[C@@H]2C)C[C@H](O)C1O (some centres not stated) | > 4 mM (inactive)
103 | N[C@@H](Cc1ccc(O)c(O)c1)C(=O)O | > 4 mM (inactive)
104 | COC(=O)C[C@@H]1C2(C)C(=O)[C@@H](CC3C2CC[C@]2(C)C3CC(=O)O[C@H]2c2ccoc2)[C@H](OC(C)=O)C1(C)C (some centres not stated) | > 4 mM (inactive)
105 | C[C@@H]1CC[C@@]23CCC4(C)[C@@](C=CC5[C@@]6(C)CC[C@H](O)C(C)(C)C6CC[C@]54C)(OC2=O)C3[C@H]1C (some centres not stated) | > 4 mM (inactive)
106 | CN1CCC(NC(=O)c2cnccn2)CC1 | > 4 mM (inactive)
107 | NC(=O)c1ccsc1NC(=O)c1cccnc1 | > 4 mM (inactive)
108 | CC(=O)Nc1ccncc1NC(C)=O | > 4 mM (inactive)
109 | Cc1nc(-c2ccccc2)ncc1C(=O)O | > 4 mM (inactive)
110 | Cc1cc(C)c(C#N)c(N2CCCC2)n1 | > 4 mM (inactive)
111 | COC(=O)[C@@]1(C)CCC[C@]2(C)c3ccc(O)c(C(C)C)c3CCC12 (some centres not stated) | > 4 mM (inactive)
112 | Cc1cc(F)c(F)c(C(=O)NC2CC2)c1Cl | > 4 mM (inactive)
113 | O=C(Nc1ccon1)c1ccc(Br)o1 | > 4 mM (inactive)
114 | Cc1ccccc1NC(=O)c1ocnc1C | > 4 mM (inactive)
115 | CC1=C2[C@H]3OC(=O)[C@@H](C)[C@@H]3CC[C@@]2(C)C=CC1=O | > 4 mM (inactive)
116 | CN1CCCC1C(=O)O (configuration not stated) | > 4 mM (inactive)
117 | O=c1cnnc(SCCc2ccccc2)[nH]1 | > 4 mM (inactive)
